Source: patent US20210177828A1, “TAM FAMILY KINASE /AND CSF1R KINASE INHIBITOR AND USE THEREOF” (Nanjing Transthera Biosciences Co., Ltd., priority 2018, published 2021)

Experiments:
[1] = Liver microsomal stability; format: in vitro ADME; conditions: mouse liver microsomes, 0.5 mg protein/mL, 1 μM compound
Procedure: An appropriate amount of the compound was precisely weighed and dissolved in DMSO to prepare a 5.0 mM stock solution. The 5.0 mM stock solution was diluted with DMSO to 1.0 mM, and finally diluted with water to a 10 μM working solution of the test sample for use (the DMSO content in the reaction system was 0.1%).
(1) The liver microsomes (20 mg protein/mL) were taken from a −80° C. refrigerator, pre-incubated on a 37° C. water bath thermostatic oscillator for 3 min, and thawed for use.
(2) An incubation system (without compound and β-NADPH) was prepared according to “composition of the incubation system” described above, and pre-incubated on a 37° C. water bath thermostatic oscillator for 2 min.
(3) Control group (without β-NADPH): 30 μL of water and 30 μL of compound working solution (10 μM) were added to 240 μL of the incubation system in step (2), and the reaction system was vortexed for 30 s and thoroughly mixed. The total volume of the reaction system was 300 μL. The sample was duplicated. The reaction solution was placed on a 37° C. water bath thermostatic oscillator for incubation, and timing was started. The sampling was conducted at 0 min and 60 min.
(4) Sample group: 70 μL of β-NADPH solution (10 mM) and 70 μL of compound working solution (10 μM) were added to 560 μL of the incubation system in step (2), and the total volume of the reaction system was 700 μL. The reaction solution was vortexed for 30 s and thoroughly mixed. The sample was duplicated. The reaction solution was placed on a 37° C. water bath thermostatic oscillator for incubation, and timing was started. The sampling was conducted at 0 min, 5 min, 10 min, 20 min, 30 min and 60 min.
(5) The reaction solution was vortexed for 3 min, and centrifuged at 12,000 rpm for 5 min.
(6) 50 μL of the supernatant was added to 150 μL of water, and the resulting solution was thoroughly vortexed and analyzed by LC/MS/MS.

MDA-MB-231 cell pAxl = molecular target: T1, MDA-MB-231 cell pAxl (Homo sapiens, UniProt P30530); assay: Inhibitory activity on cell pAxl, MDA-MB-231 cells, hGAS6 stimulation, Western Blot; format: cell-based; conditions: hGAS6 200 ng/mL
T1 construct: endogenous in cells; host or cells: MDA-MB-231
T1 sequence (P30530 26-894): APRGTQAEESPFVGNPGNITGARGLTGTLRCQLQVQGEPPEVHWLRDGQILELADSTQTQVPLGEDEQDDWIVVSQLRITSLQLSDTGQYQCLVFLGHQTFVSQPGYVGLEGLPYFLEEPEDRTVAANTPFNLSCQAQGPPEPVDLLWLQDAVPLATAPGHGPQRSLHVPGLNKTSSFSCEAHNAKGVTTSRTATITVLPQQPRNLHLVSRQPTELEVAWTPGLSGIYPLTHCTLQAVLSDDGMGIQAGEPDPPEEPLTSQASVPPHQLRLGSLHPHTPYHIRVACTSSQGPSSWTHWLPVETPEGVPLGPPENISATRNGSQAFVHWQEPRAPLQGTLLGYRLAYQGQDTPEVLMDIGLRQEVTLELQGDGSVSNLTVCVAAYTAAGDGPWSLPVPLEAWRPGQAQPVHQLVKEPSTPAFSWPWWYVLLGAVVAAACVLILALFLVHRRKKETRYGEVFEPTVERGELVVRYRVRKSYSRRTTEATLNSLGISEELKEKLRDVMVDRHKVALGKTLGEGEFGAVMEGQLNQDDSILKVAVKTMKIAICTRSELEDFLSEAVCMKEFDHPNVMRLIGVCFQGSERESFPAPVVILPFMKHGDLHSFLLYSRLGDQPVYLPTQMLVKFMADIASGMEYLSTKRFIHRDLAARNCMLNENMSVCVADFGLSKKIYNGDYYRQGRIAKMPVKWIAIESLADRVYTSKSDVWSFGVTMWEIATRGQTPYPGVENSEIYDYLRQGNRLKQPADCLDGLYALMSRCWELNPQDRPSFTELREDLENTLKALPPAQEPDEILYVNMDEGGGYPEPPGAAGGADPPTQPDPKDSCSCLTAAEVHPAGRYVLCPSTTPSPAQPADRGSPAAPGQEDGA
Procedure: MDA-MB-231 is a breast cancer cell.
MDA-MB-231 cells were inoculated to a 6-well plate (containing 10% FBS DMEM medium, […] cells per well) and adherently cultivated at 37° C., and 5% CO2 for 18 hrs. The cells were starved overnight, and then compound solutions with different concentrations were added. Compounds 1 and 2 had final concentrations of 1.1, 3.3 and 10 nM, and the remaining compounds had final concentrations of 1.1, 3.3, 10 and 30 nM. […] There was a medium containing 1‰DMSO in the negative control well. The cells were incubated at 37° C., and 5% CO2 for 60 min, and then hGAS6 (R&D, final concentration: 200 ng/mL) was added to each well. The cells were further incubated for 60 min, and then the total protein of the cells was extracted for Western Blot experiment. Gray analysis was performed on the results with Image J software, and IC50 values were calculated with GraphPad 5.0 software. The inhibitory activities of the compounds on cell pAxl were detected.

| SMILES | half-life at 1 μM [1] [h] | microsomal CLint at 1 μM [1] [µL/min/mg] | IC50 (MDA-MB-231 cell pAxl) [nM] |
| --- | --- | --- | --- |
| COc1cc2nccc(Oc3cnc(NC(=O)c4nn(CC5CCOCC5)cc(-c5ccc(C)cc5)c4=O)nc3)c2cc1OC [Compound 16, N-(5-((6,7-dimethoxyquinolin-4-yl)oxy)pyrimidin-2-yl)-4-oxo-1-((tetrahydro-2H-pyran-4-yl)methyl)-5-(p-tolyl)-1,4-dihydropyridazin-3-carboxamide] | 3.5 | 6.6 | < 1.1 |
| COc1cc2nccc(Oc3ccc(NC(=O)c4nn(C5CCOCC5)cc(-c5ccc(C)cc5)c4=O)nc3)c2cc1OC [Compound 17, N-(5-((6,7-dimethoxyquinolin-4-yl)oxy)pyridin-2-yl)-4-oxo-1-(tetrahydro-2H-pyran-4-yl)-5-(p-tolyl)-1,4-dihydropyridazin-3-carboxamide] | 1.87 | 12.4 | < 1.1 |
| COc1cc2nccc(Oc3cnc(NC(=O)c4nn(C5CCOCC5)cc(-c5ccc(C)cc5)c4=O)nc3)c2cc1OC [Compound 18, N-(5-((6,7-dimethoxyquinolin-4-yl)oxy)pyrimidin-2-yl)-4-oxo-1-(tetrahydro-2H-pyran-4-yl)-5-(p-tolyl)-1,4-dihydropyridazin-3-carboxamide] | 1.93 | 12 | < 1.1 |
| COc1cc2nccc(Oc3ccc(NC(=O)c4cn(C5CCOCC5)cc(-c5ccc(C)cc5)c4=O)nc3)c2cc1OC [Compound 19, N-(5-((6,7-dimethoxyquinolin-4-yl)oxy)pyridin-2-yl)-4-oxo-1-(tetrahydro-2H-pyran-4-yl)-5-(p-tolyl)-1,4-dihydropyridin-3-carboxamide] | 2.27 | 10.2 | < 1.1 |
| COc1cc2nccc(Oc3cnc(NC(=O)c4cn(C5CCOCC5)cc(-c5ccc(C)cc5)c4=O)nc3)c2cc1OC [Compound 20, N-(5-((6,7-dimethoxyquinolin-4-yl)oxy)pyrimidin-2-yl)-4-oxo-1-(tetrahydro-2H-pyran-4-yl)-5-(p-tolyl)-1,4-dihydropyridin-3-carboxamide] | 3.73 | 6.2 | < 10 |
| COc1cc2nccc(Oc3ccc(NC(=O)c4cc(CC5CCOCC5)cn(-c5ccc(C)cc5)c4=O)nc3)c2cc1OC [Compound 26, N-(5-((6,7-dimethoxyquinolin-4-yl)oxy)pyridin-2-yl)-oxo-5-((tetrahydro-2H-pyran-4-yl)methyl)-1-(p-tolyl)-1,2-dihydropyridin-3-carboxamide] | 1.75 | 13.2 | < 3.3 |
